Measured values as given in publication PMC7035293, “Structural ensemble of a glutamate transporter homologue in lipid nanodisc environment” (Nature Communications, 2020).

Tests used:
GltTk = biological target: T1, GltTk (Thermococcus kodakarensis, UniProt Q5JID0); assay: cryo-EM structure of the complex in lipid nanodiscs; conditions: 300 mM Na+, aspartate binding site
T1 construct: gene TK0986; C-terminal His8 tag, expressed in E. coli MC1061 (pBAD24-derived plasmid), purified apo, reconstituted in MSP2N2 lipid nanodiscs; homotrimer
T1 sequence (Q5JID0 entry or part of it): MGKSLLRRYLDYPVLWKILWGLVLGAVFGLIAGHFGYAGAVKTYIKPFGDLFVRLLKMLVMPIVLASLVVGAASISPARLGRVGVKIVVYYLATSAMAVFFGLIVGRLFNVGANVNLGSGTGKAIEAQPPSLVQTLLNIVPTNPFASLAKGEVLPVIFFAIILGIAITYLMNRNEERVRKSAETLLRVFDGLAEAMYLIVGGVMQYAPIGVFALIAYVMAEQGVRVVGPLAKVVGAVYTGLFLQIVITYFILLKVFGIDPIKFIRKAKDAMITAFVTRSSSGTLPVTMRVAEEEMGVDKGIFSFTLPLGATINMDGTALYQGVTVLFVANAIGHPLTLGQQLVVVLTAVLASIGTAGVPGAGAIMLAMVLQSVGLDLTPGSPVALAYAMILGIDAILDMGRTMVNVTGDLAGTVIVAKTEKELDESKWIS

[1] = biological target: glutamate transporter homologue GltTk from Thermococcus kodakarensis (Thermococcus kodakarensis) (UniProt Q5JID0); assay: cryo-EM structure; GltTk in MSP2N2 nanodiscs (E. coli polar lipids:egg PC 3:1 w/w), 20 mM Tris-HCl pH 8.0, 300 mM NaCl; five structures: Na+-only, L-aspartate unsaturated (two structures), L-aspartate saturated, 120 uM DL-TBOA; 200 keV Talos Arctica

NC(C(=O)O)C(OCc1ccccc1)C(=O)O (racemic) [DL-TBOA]
cryo-EM structure of the complex in lipid nanodiscs (GltTk; pH 8.0, 120 uM DL-TBOA with 4.5 uM nanodiscs, competitive, outward-open state, two of three protomers occupied): The fully-outward protomers have wide open HP2 gates

N[C@@H](CC(=O)O)C(=O)O [L-aspartate]
cryo-EM structure of the complex in lipid nanodiscs (GltTk; pH 8.0, 50 uM L-aspartate with 5.6 uM nanodiscs, intermediate-outward occluded state, also sub-saturating structures 6XWO and 6XWP): density for the amino acid substrate in the binding site is observed

glutamate transporter homologue GltTk from Thermococcus kodakarensis (from UniProt Q5JID0 1-430) (natural protein)
stoichiometry N [1]: 3
